Experimental data taken from patent US20150071856A1, “ANTAGONISTIC PEPTIDES FOR FRIZZLED-1 AND FRIZZLED-2” (Universiteit Maastricht, priority 2013, published 2015).
Entries after “also recorded” stand apart in the source; their conditions may differ. Residues, ends and D or L forms follow the SMILES beside them.

Legend:
canonical Wnt signaling = experiment: Activity assay (Example 1): TOPflash luciferase reporter in HEK (HEK293-superTOPflash) cells, receptor not specified; type: cell-based, human
Procedure: (§1) Human embryonic kidney (HEK) cells were used for screening. These cells have a luciferase construct stably transfected into the genome (see FIG. 2A), such that when the frizzled receptor is activated and β-catenin is increased, the luciferase is activated by transcription and light can be measured.
(§2) The peptides were tested by transfecting the frizzled-1 or the frizzled-2 receptor and addition of UM206(S-S) to the cell culture. For testing antagonistic activity, UM206 was added and the natural ligand Wnt3a was added, which is a natural stimulus for the canonical pathway.
Transfection and Luciferase Measurement:
(§3) Plate cells in 12-well plates
(§4) Day 2: Transfection 12-Well Plates • heat Fugene6 and DNA 15 minutes at RT • 2 ml serum-free medium in tube • add 3 μl fugene • add 2 μg DNA • incubate 30 minutes at RT • wash with PBS • add 50 μl transfectiemix • add 1 ml antibiotica-free medium
(§5) Day 3: Add Conditioned Medium or UM206
(§6) Day 4: Luciferase Activity Measurements • remove medium • wash with PBS • add 500 μl ⅕ lysisbuffer • shake for 60 minutes • centrifuge in tube • 20 μl lysaat and 50 μl luciferase in new tube for measurement • vortex • measure
(§7) Three areas of high homology that contained two cysteines are underlined (UM207), (UM208) and (UM206). In FIGS. 9B through 9D, the inhibitory effect of these three peptides on Wnt3a-induced luciferase activity in HEK293-superTOPflash is shown. […] Again, the peptides by themselves had no effect on the luciferase activity.
(§8) The cell lines were cultured in 75 cm^2 culture flasks (Corning, Schiphol, the Netherlands) in Dulbeco's modified essential medium with L-glutamine (2 mM), 10% fetal calf serum (Invitrogen, Merelbeke, Belgium), and 1% gentamycin (Sigma-Aldrich, Zwijndrecht, The Netherlands). Before starting the experiment, the cell lines were treated with plasmocin 25 μg/ml (Invivogen, Toulose, France) and tested with a mycoalert mycoplasma detection kit (Lonza, Rockland Me., USA). Cells were transiently transfected with Fugene6 (Roche, Indianapolis Ind., USA) with plasmid DNA, pcDNA3.1/hygro (Invitrogen) with frizzled-1/2/4 or Wnts 3a-5a or with pcDNA3.0 (Invitrogen) containing the β-catenin or frizzled-5 sequence. After transfection, the cells were cultured for 24 hours in conditioned medium, collected from the cultured L-cells, L-cells with Wnt3a or 5a (Invitrogen). At the same moment the antagonist was added.
(§9) For the luciferase experiments not in HEK cells, the cells were additionally transfected with a TOPflash construct, eight TCF/LEF binding sites cloned into the pTA-Luc vector. Luciferase activity was measured using luciferase assay system (Promega, Madison Wis., USA).

frizzled-1 (rFzd-1) = biological target: T1, frizzled-1 (rFzd-1) (Rattus norvegicus, UniProt Q08463); experiment: Activity assay: luciferase reporter in HEK superTOPflash cells transfected with frizzled-1; type: cell-based
T1 construct: expressed in transfected cells; host or cells: HEK293 superTOPflash (transient, Fugene6, pcDNA3.1/hygro)
Procedure: as §1, §2, §4, §5, §6, §7
To determine the inhibitory constant of UM206-8, HEK293-superTOPflash cells were transfected with either rFzd-1 or -2 and incubated with Wnt3a (10^−9M) in the presence of increasing concentrations of either of the peptides (FIG. 15). For UM206, a biphasic inhibition curve was observed that was best fitted with a two-binding-state model.
as §8

hFzd-5 = biological target: T2, hFzd-5 (Homo sapiens, UniProt Q13467); experiment: Receptor specificity: luciferase in HEK293 superTOPflash cells overexpressing hFzd-5; type: cell-based; details: UM206 1.10^−8 M
T2 construct: expressed in transfected cells; host or cells: HEK293 superTOPflash (transient, Fugene6, pcDNA3.0)
Procedure: In FIG. 3, Panel E, the efficacy of UM206 to block the Wnt3a-induced activation of luciferase activity in HEK293 superTOPflash cells transfected with different Fzds is shown.
as §8

rFzd-1 or -2 = experiment: TOPflash experiments in CHO and COS-7 cells overexpressing rFzd-1 or -2; type: cell-based, rat
Text: as §7, §9

[1] = test system: C-FIT cells (cardiac fibroblasts immortalized with telomerase); experiment: Migration assay (wound/scratch assay) with C-FIT cells overexpressing Fzd-1 or -2; type: cell-based, rat
Procedure: For this assay, we used rat cardiac fibroblasts, which were immortalized with telomerase, the C-FIT cell line. This cell line was characterized previously and resembles features of primary cardiac fibroblasts. C-FIT cells were plated, treated when they were 70% confluent and a wound was made with a pipette tip at the moment of 100% confluence.
This assay was first tested with the natural ligand Wnt3a, in combination with frizzled-1 and -2 overexpression. […] Next step was to see whether the antagonist could counteract this. (See FIG. 4.)
as §3
Transfection (see protocol)
Addition of conditioned medium
Make a scratch. This is time point zero.
Making pictures every six hours and analyzing the scratch width.
The overexpression of Fzd-1 and -2 in migrating (myo)fibroblasts during infarct healing was one of the first reports of activation of Wnt/Fzd signaling in cardiovascular remodeling (Blankesteijn 1997). To assess the functional relevance of Wnt/Fzd signaling on cardiac fibroblast proliferation, migration and differentiation, a cardiac fibroblast cell line immortalized with telomerase was used, as previously described (Janhunen 2009, Laeremans 2009).
Cells were plated on day 0, and cultured until 70% confluence before transfection or treatment. […] Scratch width was measured at this time point, and also after 6, 12, and 24 hours.

myocardial infarction [2] = details: mouse, in vivo
Procedure: To this end, we administered UM206 subcutaneously by an osmotic minipump (6 microgram/kg/day); the control group was equipped with a saline-filled minipump. The minipumps were implanted at the time of infarct induction and lasted for up to five weeks.
Male Swiss mice were used (10-12 weeks of age, Charles River, Maastricht, The Netherlands). The animals were randomly included into the three different experimental groups. […] In the treatment study, either UM206 (6 μg/kg/day) or saline were administrated by an osmotic minipump (Alzet 2002 or 2006 for two- and five-week treatments, respectively; Alzet, Cupertino Calif., USA). MI was induced, under isofluorane anesthesia as previously described (van den Borne et al., 2009).

myocardial infarction [3] = experiment: Echocardiography of mice after myocardial infarction; type: in vivo; details: UM206-treated group post-MI
Procedure: All animals were subjected to extensive echocardiography studies for the assessment of myocardial infarct size, LV cavity dimensions and ventricular function. Echocardiography examination was performed under 2% isofluorane. Echocardiograms were recorded with Philips Sonos 5500 ultrasound system (Philips, Eindhoven, the Netherlands) using a 20-MHz linear probe.

infarct rupture = experiment: Infarct rupture in 12956 mice treated with UM206; type: in vivo; details: infarct rupture frequency ˜60%; unpublished observations
Text: Because of the lack of pharmacological tools to intervene in Wnt/Fzd signaling in vivo, only genetic interventions have been reported so far in studies on the role of Wnt signaling in infarct healing. Barandon et al. were the first to show a beneficial effect of overexpression on infarct healing of FrzA, a bovine homologue of soluble frizzled-related protein-1 (sFRP1). They observed a decreased infarct size with elevated numbers of myofibroblasts and increased angiogenesis in the infarcted FrzA transgenic mice (Barandon et al., 2003), which could be confirmed in the present study using an Fzd-1 and -2 antagonist. […] In the mean time, the beneficial effects of sFRP overexpression on infarct healing have been confirmed by Kobayashi et al. (Kobayashi et al., 2009). Taken together, these reports support the observations of the present study and point to a beneficial effect of inhibiting Wnt/Fzd signaling on the wound-healing process after MI.

T1 sequence (Q08463 69-641): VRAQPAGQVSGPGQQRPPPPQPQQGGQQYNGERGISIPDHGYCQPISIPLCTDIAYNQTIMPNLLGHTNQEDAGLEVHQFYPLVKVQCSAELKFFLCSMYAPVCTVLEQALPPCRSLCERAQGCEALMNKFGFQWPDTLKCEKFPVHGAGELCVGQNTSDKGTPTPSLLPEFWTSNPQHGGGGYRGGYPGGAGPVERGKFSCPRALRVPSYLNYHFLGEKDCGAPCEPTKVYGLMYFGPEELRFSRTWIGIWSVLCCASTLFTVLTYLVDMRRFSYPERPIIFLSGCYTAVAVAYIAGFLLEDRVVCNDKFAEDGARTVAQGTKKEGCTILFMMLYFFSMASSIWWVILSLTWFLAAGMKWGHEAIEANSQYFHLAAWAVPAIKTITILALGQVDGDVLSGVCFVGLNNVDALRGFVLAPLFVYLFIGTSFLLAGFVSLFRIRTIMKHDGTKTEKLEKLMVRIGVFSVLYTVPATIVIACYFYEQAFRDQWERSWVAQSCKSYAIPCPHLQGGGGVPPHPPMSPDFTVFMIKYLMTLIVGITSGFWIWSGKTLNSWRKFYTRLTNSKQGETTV
T2 sequence (Q13467 27-585): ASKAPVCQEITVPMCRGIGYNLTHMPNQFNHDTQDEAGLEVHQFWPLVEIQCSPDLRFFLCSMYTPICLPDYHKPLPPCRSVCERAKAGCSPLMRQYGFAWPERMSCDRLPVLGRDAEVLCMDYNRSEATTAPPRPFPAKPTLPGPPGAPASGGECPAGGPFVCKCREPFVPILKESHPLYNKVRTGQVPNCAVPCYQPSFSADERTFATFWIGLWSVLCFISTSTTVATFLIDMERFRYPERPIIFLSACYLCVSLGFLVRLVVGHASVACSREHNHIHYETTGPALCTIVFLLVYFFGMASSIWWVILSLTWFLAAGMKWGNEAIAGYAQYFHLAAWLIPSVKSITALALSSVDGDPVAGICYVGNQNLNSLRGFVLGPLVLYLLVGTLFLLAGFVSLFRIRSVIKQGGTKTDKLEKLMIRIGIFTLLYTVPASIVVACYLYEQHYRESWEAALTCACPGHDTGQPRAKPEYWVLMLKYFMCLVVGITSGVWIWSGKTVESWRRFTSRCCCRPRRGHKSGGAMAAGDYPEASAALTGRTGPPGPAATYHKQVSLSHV

**Q.** CSCC[C@H](NC(=O)CNC(=O)[C@H](CCC(=O)O)NC(=O)[C@H](CO)NC(=O)[C@@H](NC(=O)[C@H](CCCCN)NC(=O)[C@H](CC(N)=O)NC(=O)[C@H](CS)NC(C)=O)[C@@H](C)O)C(=O)N[C@@H](CC(=O)O)C(=O)NCC(=O)N[C@@H](CS)C(=O)N[C@@H](CCC(=O)O)C(=O)N[C@@H](CC(C)C)C(N)=O [UM206, Ac-Cys-Asn-Lys-Thr-Ser-Glu-Gly-Met-Asp-Gly-Cys-Glu-Leu-NH2] (Ac-CNKTSEGMDGCEL-NH2) was tested. Which “IC50” value (canonical Wnt signaling) did it give?
**A.** Its value is “in the nanomolar range”.

**Q.** What about the “activity on the frizzled receptor: antagonist or agonist” value (canonical Wnt signaling; model of Example 1) of the same molecule?
**A.** Its value is “very potent antagonist; also recorded: very potent inhibitor of the canonical Wnt signaling”.

**Q.** What about the “effect of the peptide by itself on luciferase activity” value (canonical Wnt signaling; without Wnt3a) of the same molecule?
**A.** The value was “none of the three peptides by itself could induce an increase in luciferase activity; also recorded: no effect”.

**Q.** And the “% of inhibition for Fzd-1” value (frizzled-1 (rFzd-1); Wnt3a-induced luciferase activity, antagonists at 1.10^−9 M)?
**A.** The value was 72.15%.

**Q.** And the “block of Wnt3a-induced luciferase activity, rFzd-1” value (frizzled-1 (rFzd-1); peptide 1.10^−8 M)?
**A.** The value was “blocked almost completely; also recorded: abolished the induction of luciferase activity almost completely”.

**Q.** And the “effect on Wnt3a-induced luciferase activity, frizzled-5” value (hFzd-5)?
**A.** Its value is “no effect”.

**Q.** And the “inhibition of Wnt3a-induced TOPflash activation in CHO and COS-7 cells” value (rFzd-1 or -2)?
**A.** The value was “can selectively block canonical Wnt/Fzd-1/2 signaling”.

**Q.** And the “effect of UM206 alone on cell migration” value [1]?
**A.** Its value is “no effect on cell migration”.

**Q.** And the “counteraction of Wnt3a/Wnt5a-induced attenuation of migration” value ([1]; UM206 1.10^−8 M, Fzd-1 or -2 overexpression)?
**A.** Its value is “migration was reset to the migration speed of the control; also recorded: blocked completely; also recorded: block this effect completely”.

**Q.** What about the “adverse effects of chronic administration” value (myocardial infarction [2]) of the same molecule?
**A.** The value was “did not observe any adverse effects”.

**Q.** What about the “effects on other organs known to contain Fzd-2, including kidney and small intestine” value (myocardial infarction [2]) of the same molecule?
**A.** Its value is “did not observe any effects”.

**Q.** And the “change of ejection fraction versus saline” value (myocardial infarction [3])?
**A.** Its value is “doubling of the ejection fraction”.

**Q.** And the “reduction in end diastolic volume of the left ventricle versus saline” value (myocardial infarction [3])?
**A.** Its value is 40%.

**Q.** And the “number of ruptured infarcts” value (infarct rupture)?
**A.** The value was “did not reduce the number of ruptured infarcts”.
